US20250152706A1, “COMPOSITIONS FOR ORAL DELIVERY OF BIOTHERAPEUTICS” (INTRACT PHARMA LIMITED, priority 2022, published 2025)
“Also recorded” adds a separate entry of the source. Where two headings read alike, the source gives them in different places. Each block holds one compound with its values, some of them ahead of it.

What was measured:
[1] = Ussing chamber penetration of infliximab into rat small intestine tissue, ELISA; details: 2 h, Examples 8-10
Description: (§1) The chambers are made of solid acrylic and supports the tissue membrane in such a way that each side of the membrane is isolated and faces a different chamber representing the luminal (apical) and blood (basal) compartments. The working system consists of a unit to fit a maximum of six vertical chambers, a gas manifold for carbogen purging (95% O2, 5% CO2) and a heater block to maintain the temperature of the chambers at 37° C. during the experiments with the use of a circulating water bath. The chambers are two-piece assemblies held together by a high spring-tension retaining ring to ensure leak-free operation during the experiments. […]
(§2) For the tissue penetration studies, the freshly excised small intestine (jejunum) and proximal colon tissue of healthy wistar rats was collected and transferred to an ice-cold solution of Krebs-Bicarbonate Ringer solution (KBr) of pH 7.4. […] The TEER was continuously monitored during the experiment to confirm the viability and integrity of the tissue. […]
(§3) Infliximab sample analysis (permeability studies) was performed using an indirect ELISA platform assay. […] The plate was read at a wavelength of 650 nm with the plate reader (Synergy LX Multimode Reader, Biotek).
(§4) Permeability of the drug infliximab across rat small intestine (jejunum) and colon tissue was measured with and without 5-ALA and the base, L-arginine. […]

[2] = Stability of oxytocin in rat caecum slurry, RP-HPLC; details: for effect of the excipient on oxytocin stability, in words: rat caecum slurry, Examples 6 and 7; for remaining at 2 h, 1 mg/ml: Wistar, rat, pH 5.5, % Drug at T = 2 h, oxytocin 1 mg/ml, aprotinin 1 mg/ml in rat caecum slurry
Description: The rat caecum slurry was based on combination of cecum and proximal colon fluids collected from healthy wistar rats weighing 250 g. The fluids were collected immediately after sacrificing the rats and transferred to an anaerobic workstation (Electrotek 500TG™ workstation, Electrotek, West Yorkshire, UK) maintained at 37° C. and 70% relative air humidity. The fluids were diluted with freshly prepared basal medium to obtain a 50% w/w caecum fluid by homogenization. The homogenized mixture was sieved through an open mesh fabric. The pH of the fluid was measured as 5.5.
Peptide stock solution (oxytocin) were prepared in PBS at 2 mg/ml concentrations. Concentrations of 10 mg/ml and 40 mg/ml 5-ALA, 40 mg/ml methyl-ALA, 40 mg/ml hexyl-ALA and 2 mg/ml aprotinin were prepared. Stock solutions containing certain oxytocin combinations were added to 50% rat caecum slurry to obtain incubation concentrations (Examples 6 and 7) of 1 mg/ml peptide, 5 mg/ml or 20 mg/ml 5-ALA, 20 mg/ml methyl-ALA, 20 mg/ml hexyl-ALA, 1 mg/ml aprotinin, and 25% w/w rat caecum slurry. Samples were withdrawn at appropriate time points and added to 0.1N HCl solution in a ratio of 1:3. The samples were centrifuged at 9.6 g for 10 mins and the supernatant was analysed by reversed phase-HPLC (RP-HPLC).
A 150×4.6-mm Luna 5 μm C18 100 Å (Phenomenex, Torrance, CA) column was used using a gradient system as below:
Each sample's injection volume was 20 μl, the mobile phase flow rate was 1 ml/min and the peptide was detected at 214 nm. Each sample was run for 23 mins.
Stability of the drug oxytocin in rat caecum slurry was measured with and without 5-ALA and aprotinin, an enzyme inhibitor. Each experiment was conducted in duplicate/triplicate. The oxytocin remaining at different time points was measured by RP-HPLC.
Stability of the drug oxytocin in rat caecum slurry was measured with and without methyl-ALA, hexyl-ALA and aprotinin, an enzyme inhibitor. Each experiment was conducted in duplicate/triplicate. The oxytocin remaining at different time points was measured by RP-HPLC.

[3] = Stability of infliximab in human colon fluid (human colon model), SE-HPLC; assay type: in vitro ADME; details: for effect of the excipient on infliximab stability, in words: human colon fluid, Examples 1 and 4
Description: A human colonic model based on a mixed faecal inoculum was used to mimic the luminal environment of the human large intestine. […] The basal media provides nutrients and growth factors to the microbiota allowing viability for up to 24 hours. The homogenized bacterial media was sieved through an open mesh fabric (SefarNitex™, pore size 350 μm) to remove any nonhomogeneous fibrous material. The pH was maintained at approximately 7.0 to mimic the colonic luminal pH of the human.
Stability of the drug/antibody infliximab in human colon fluid was measured with and without 5-ALA at varying concentrations. Each experiment was conducted in duplicate/triplicate.
Stability of the drug infliximab in human colon fluid was measured with and without 5-ALA and L-arginine at varying concentrations. Each experiment was conducted in duplicate/triplicate.
Stability of the drug infliximab in human colon fluid was measured with and without 5-ALA and aprotinin at varying pH. Each experiment was conducted in duplicate/triplicate.
Each experiment was conducted in duplicate/triplicate.

[4] = Ussing chamber penetration of oxytocin into rat colon tissue, RP-HPLC; assay type: in vitro ADME; details: Example 12
Description: as §1, §2
(§5) Permeability of the drug oxytocin across rat small intestine (jejunum) and colon tissue was measured with and without 5-ALA. The peptide in the tissue at 2 h and was measured by RP-HPLC.

[5] = Ussing chamber penetration of infliximab into rat colon tissue, ELISA; details: 2 h
Description: as §1, §2, §3, §4

[6] = Description: Antibody stock solution (infliximab) was prepared in PBS at a 2 mg/ml concentration. 5-ALA was prepared at concentrations 10, 20 or 40 mg/ml. Methyl-ALA, hexyl-ALA, salcaprozate sodium, (SNAC) and sodium chenodeoxycholate were prepared at 20 mg/ml concentrations. The base L-arginine was prepared at 11, 22 or 44 mg/ml, and the stabiliser aprotinin was prepared at a 2 mg/ml concentration.
A 300×8.0-mm YMC-Pack Diol-200 S-5 μm, 20 nm (YMC Co Ltd, Kyoto, Japan) size exclusion (SE) chromatography column was used for sample separation using phosphate buffer saline (pH 7.3) prepared in sterile HPLC grade water as the mobile phase for elution, at a flow rate of 0.5 ml/min. The analysis was operated at room temperature and UV detection wavelength was set at 214 nm. Each sample was run for 40 minutes to allow complete elution of the sample proteins and reduce run-over.
Stability of the drug infliximab in rat caecum slurry was measured with and without SNAC, sodium chenodeoxycholate, hexyl-ALA and aprotinin. Each experiment was conducted in duplicate/triplicate. The antibody remaining at different time points was measured by SE-HPLC.

[7] = Ussing chamber penetration of oxytocin into rat small intestine tissue, RP-HPLC; details: 2 h, Examples 12-14
Description: as §1, §2, §5
Permeability of oxytocin across rat small intestine (jejunum) was measured with and without 5-ALA, methyl-ALA and hexyl-ALA. The peptide in the tissue at 2 h and was measured by RP-HPLC. […]

[8] = Example 1, infliximab 1 mg/ml in human colon fluid, 5-ALA.HCl 5 mg/ml (pH 5.5), 10 mg/ml (pH 4.9), 20 mg/ml (pH 4.1)
[9] = Example 2, infliximab 1 mg/ml in human colon fluid, 5-ALA phosphate + L-arginine 5 + 5.5 mg/ml (pH 6.4), 10 + 11 mg/ml (6.5), 20 + 22 mg/ml (pH 6.5), 5-ALA phosphate 20 mg/ml + NaOH (pH 6.4)
[10] = Example 4, infliximab 1 mg/ml, 5-ALA.HCl / methyl-ALA / hexyl-ALA 10 mg/ml, aprotinin 1 mg/ml in human colon fluid, pH 6.5

Compound: NCC(=O)CCC(=O)O [Formulation 5-ALA, 5-aminolevulinic acid]
effect of the excipient on infliximab permeation / tissue uptake, in words [1]: did not lead to permeation or improved tissue uptake of infliximab
effect of the excipient on oxytocin stability, in words [2]: acts as a stabiliser and increases the amount of peptide present in the caecum slurry
effect of the excipient on infliximab stability, in words [3]: provides antibody stability; also recorded: does not stabilize the antibody in a dose dependent manner
effect of the excipient on oxytocin permeation / tissue level, in words ([4]; rat colon tissue, 2 h): acts as a permeability enhancer and increases the amount of oxytocin
effect of the excipient on infliximab permeation / tissue uptake, in words ([5]; rat colon tissue, Example 8): did not lead to permeation or improved tissue uptake of infliximab

remaining at 2 h, 1 mg/ml ([2]; Example 6, 5-ALA.HCl 20 mg/ml): 10.9 ± 3.4%
remaining at 2 h, 1 mg/ml ([2]; Example 7, methyl-ALA / hexyl-ALA 20 mg/ml): 5 ± 2%
% Drug in colon tissue at 2 h ([4]; oxytocin 1 mg/ml, 5-ALA.HCl 20 mg/ml): 0.0 ± 0.0%
Compound: CC[C@H](C)[C@@H]1NC(=O)[C@H](Cc2ccc(O)cc2)NC(=O)[C@@H](N)CSSC[C@@H](C(=O)N2CCC[C@H]2C(=O)N[C@@H](CC(C)C)C(=O)NCC(N)=O)NC(=O)[C@H](CC(N)=O)NC(=O)[C@H](CCC(N)=O)NC1=O [Oxytocin]

effect of the excipient on infliximab stability, in words [6]: provide no stabilisation
Compound: O=C([O-])CCCCCCCNC(=O)c1ccccc1O.[Na+] [SNAC, salcaprozate sodium]

Compound: CCCCCCOC(=O)CCC(=O)CN [hexyl-ALA, hexyl aminolevulinic acid]
effect of the excipient on oxytocin stability, in words [2]: provide some peptide stabilisation
effect of the excipient on infliximab stability, in words [3]: greater antibody stabilisation
effect of the excipient on infliximab stability, in words [6]: provide good antibody stability

Compound: COC(=O)CCC(=O)CN [methyl-ALA, methyl aminolevulinic acid]
effect of the excipient on infliximab stability, in words [3]: greater antibody stabilisation

Compound: CCCCCCCCCC(=O)[O-].[Na+] [sodium caprate]
effect of the excipient on infliximab tissue level, in words ([5]; rat colon tissue pre-treated with NAC, Example 11): may have led to increased tissue levels of antibody
effect of the excipient on oxytocin permeation / tissue level, in words [7]: greatest increase in oxytocin tissue levels

effect of the excipient on infliximab stability, in words [6]: provide no stabilisation
Compound: C[C@H](CCC(=O)[O-])[C@H]1CC[C@H]2[C@@H]3[C@H](O)C[C@@H]4C[C@H](O)CC[C@]4(C)[C@H]3CC[C@]12C.[Na+] [sodium chenodeoxycholate]

Compound: Infliximab: monoclonal antibody; existing commercial IBD therapeutic antibody, tested alone as control
% Drug at T = 2 h [3, 8]: 21.5 ± 0.0%
% Drug at T = 4 h [3, 8]: 7.8 ± 0.0%
% Drug at T = 2 h [3, 9]: 16.5 ± 0.4%
% Drug at T = 4 h [3, 9]: 6.5 ± 0.3%
% Drug at T = 2 h [3, 10]: 37.6 ± 3.5%
% Drug at T = 4 h [3, 10]: 16.1 ± 0.6%

Compound: aprotinin
effect of the excipient on infliximab stability, in words [6]: provides an antibody stabilisation effect
